Starred links: 1 amine or outer side, 2 acyl side, 3 side chain; linkers in the order of their positions; H or OH if unused. Positions of bridges follow the written chain, without caps; N, C: chain ends. Non-standard residues stand in square brackets, D forms with d. Residues, ends and D or L forms follow the SMILES beside them. *: point of attachment. hTyr(3S-OH,4S-OH,3'-OSO3H) = N[C@H](C(=O)O)[C@H](O)[C@@H](O)c1ccc(O)c(OS(=O)(=O)O)c1; Orn(4R-OH,5R-OH) = O=C([C@H](C[C@@H](O)[C@@H](O)N[*:3])N[*:1])[*:2]; Pro(3S-OH,4S-Me) = C[C@H]1CN[C@H](C(=O)O)[C@H]1O; X1 = CCCCCOc1ccc(-c2cc(-c3ccc(C(=O)*)cc3)no2)cc1; Gln(3R-OH) = NC(=O)C[C@@H](O)[C@H](N)C(=O)O; Hyp = O=C(O)[C@@H]1C[C@@H](O)CN1
Test system: Human Hepatic Sinusoidal Endothelial Cells (HHSEC)
Experiment: Oxygen and glucose deprivation followed by replenishment, cell survival (calcein AM), HHSEC
Type: cell-based
Protocol: Anidulafungin and micafungin were tested on Human Renal Glomerular Endothelial Cells (HRGEC, Innoprot P10665), on Human Renal Proximal Tubular Epithelial Cells (HRPTEpiC, Innoprot P10662), on Human Astrocytes (HA, caltag SC-1800), on Human Cardiac Microvascular Endothelial Cells (HCMEC, Caltag SC-6000), on Human Hepatic Sinusoidal Endothelial Cells (HHSEC, Caltag SC-5000), on Rat Primary Kidney Glomerular Endothelial cells (Cellbiologics, RN-6014G) and on Bovine Brain Microvascular Endothelial Cells (BBMEC, Caltag SC-B100).
In a first phase, these isolated, purified and cryopreserved cells are thawed and multiplied according to the supplier's recommendations in T75 or T175 flasks pre-coated with 2 μg of fibronectin/[…] (CORNING) for HRGEC, HCMEC, HHSEC and BBMEC, or 2 μg poly-L-lysin/cm^2 (Caltag SC-0403) for HRPTEpiC and HA, or 15 mL/flask 175 cm^2 gelatin-based solution (Cellbiologics) in the presence of endothelial cell supplemented growth medium ECM (P60104, INNOPROT, Caltag, SC-1001) for HRGEC, HCMEC, HHSEC, RPKGEC or BBMEC, or astrocyte cell supplemented growth medium AM (Caltag SC-1801) for HA or epithelial cell supplemented growth medium EpiCM (P60106, INNOPROT) for HRPTEpiC, at 37° C. under 5% CO2 and saturated humidity until their confluency. They are then harvested by trypsinization according to the method described by the supplier for exactly 5 minutes and then reseeded in new flasks a maximum of three times.
To carry out the oxygen and glucose deprivation test followed by their replenishment, the cells will be seeded in 96-well black plates with transparent flat bottom (GREINER). Once a sufficient number of cells has been obtained to allow seeding of 2000 to 15000 cells per well of 96-well plates depending on the cell type, the cells are seeded in these 96-well plates previously coated with an extracellular matrix as listed above for the flasks. The cells are cultured for 5 to 8 days according to the cell type, in the presence of the same growth medium as in the flask as described above except for HRGEC and HRPTEpiC for which DMEM (DUTSCHER) with 1 g/L of supplemented glucose is used, at 37° C. under 5% CO2 and saturated humidity to obtain confluency.
On the first day of oxygen and glucose deprivation, (5th, 6th, 7th or 8th day of culture), the culture conditions are drastically changed. The medium of all plates is removed and replaced by DMEM (DUTSCHER) medium without glucose and supplemented only with 1% penicillin-streptomycin (DUTSCHER). Anidulafungin or micafungin dissolved in dimethyl sulfoxide (DMSO) is then added to each well at the desired concentration, resulting in a maximum of 1% DMSO, and the plates are placed under hypoxia at <1% 02 and 5% CO2 at 37° C. for 24 hours of culture. Each compound was tested in a concentration range.
After 24 hours, the growth medium is changed and replaced by a richer medium, DMEM (DUTSCHER) at 1 g/L glucose and 2% FBS (INNOPROT) and 1% penicillin-streptomycin (DUTSCHER). These media will have been pre-equilibrated at 37° C. in advance. The cells are then returned to culture at 37° C. under 20% 02 and 5% CO2 for 22h.
After 22 hours of reoxygenation, the potential protective effect of anidulafungin or micafungin is measured by a cell viability test using calcein AM (CORNING), which is a dye substrate. The calcein AM can easily cross the cell membrane of the viable cells. The AM ester groups mask the part of the molecule that chelates calcium. Once inside the cells, the (non-fluorescent) calcein AM is hydrolyzed to (fluorescent) calcein by endogenous esterases. The resulting calcein molecule binds to calcium inside the cell and remains trapped inside the cell. These molecules emit strong green fluorescence when subjected to […] of a particular wavelength (495 nm). Since dead cells lack esterase activity, only living cells are labelled.
This cell viability test is performed in two steps. […]

[1] = [Micafungin] log μM 0 (first line printed 0, r12)
[2] = [Micafungin] log μM 0 (second line printed 0, r14)

For `CCCCCOc1ccc(-c2cc(-c3ccc(C(=O)N[C@H]4C[C@@H](O)[C@@H](O)NC(=O)[C@@H]5[C@@H](O)[C@@H](C)CN5C(=O)[C@H]([C@H](O)CC(N)=O)NC(=O)[C@H]([C@H](O)[C@@H](O)c5ccc(O)c(OS(=O)(=O)O)c5)NC(=O)[C@@H]5C[C@@H](O)CN5C(=O)[C@H]([C@@H](C)O)NC4=O)cc3)no2)cc1` [Micafungin, {5-[(1S,2S)-2-[(3S,6S,9S,11R,15S,18S,20R,21R,24S,25S,26S)-3-[(1R)-2-carbamoyl-1-hydroxyethyl]-11,20,21,25-tetrahydroxy-15-[(1R)-1-hydroxyethyl]-26-methyl-2,5,8,14,17,23-hexaoxo-18-[(4-{5-[4-(pentyloxy)phenyl]-1,2-oxazol-3-yl}benzene)amido]-1,4,7,13,16,22-hexaazatricyclo[22.3.0.0]heptacosan-6-yl]-1,2-dihydroxyethyl]-2-hydroxyphenyl}oxidanesulfonic acid] (X1-[Orn(4R-OH,5R-OH)]T[Hyp][hTyr(3S-OH,4S-OH,3'-OSO3H)][Gln(3R-OH)][Pro(3S-OH,4S-Me)]; lactam 1-C), the “Globalfluo assay 1” value [1] was 2600496 arbitrary units, the “Globalfluo assay 2” value [1] was 2592730 arbitrary units and the “Globalfluo assay 3” value [1] was 2666315 arbitrary units. The Mean globalfluo [1] was 2619847 arbitrary units, the “Survival rate (%)” value [1] was 0% and the “Globalfluo assay 1” value [2] was 3063920 arbitrary units. For the same molecule, the “Globalfluo assay 2” value [2] was 2647280 arbitrary units, the “Globalfluo assay 3” value [2] was 2608353 arbitrary units and the Mean globalfluo [2] was 2773184 arbitrary units. The “Survival rate (%)” value [2] was 1%, the “Globalfluo assay 1” value ([Micafungin] log μM 0.4771213) was 2619032 arbitrary units and the “Globalfluo assay 2” value ([Micafungin] log μM 0.4771213) was 2696453 arbitrary units. For the same molecule, the “Globalfluo assay 3” value ([Micafungin] log μM 0.4771213) was 2858592 arbitrary units, the Mean globalfluo ([Micafungin] log μM 0.4771213) was 2724692 arbitrary units and the “Survival rate (%)” value ([Micafungin] log μM 0.4771213) was 1%. The “Globalfluo assay 1” value ([Micafungin] log μM 0.7781513) was 2942319 arbitrary units, the “Globalfluo assay 2” value ([Micafungin] log μM 0.7781513) was 3052699 arbitrary units and the “Globalfluo assay 3” value ([Micafungin] log μM 0.7781513) was 2975927 arbitrary units. The Mean globalfluo ([Micafungin] log μM 0.7781513) was 2990315 arbitrary units, the “Survival rate (%)” value ([Micafungin] log μM 0.7781513) was 2% and the “Globalfluo assay 1” value ([Micafungin] log μM 0.90309) was 2800146 arbitrary units. The “Globalfluo assay 2” value ([Micafungin] log μM 0.90309) was 3162662 arbitrary units, the “Globalfluo assay 3” value ([Micafungin] log μM 0.90309) was 3203256 arbitrary units and the Mean globalfluo ([Micafungin] log μM 0.90309) was 3055355 arbitrary units. For the same molecule, the “Survival rate (%)” value ([Micafungin] log μM 0.90309) was 3%, the “Globalfluo assay 1” value ([Micafungin] log μM 1) was 3210890 arbitrary units and the “Globalfluo assay 2” value ([Micafungin] log μM 1) was 3369543 arbitrary units. The “Globalfluo assay 3” value ([Micafungin] log μM 1) was 2819931 arbitrary units, the Mean globalfluo ([Micafungin] log μM 1) was 3133455 arbitrary units and the “Survival rate (%)” value ([Micafungin] log μM 1) was 3%. For the same molecule, the “Globalfluo assay 1” value ([Micafungin] log μM 1.079181) was 3383806 arbitrary units, the “Globalfluo assay 2” value ([Micafungin] log μM 1.079181) was 3457745 arbitrary units and the “Globalfluo assay 3” value ([Micafungin] log μM 1.079181) was 3493598 arbitrary units. The Mean globalfluo ([Micafungin] log μM 1.079181) was 3445050 arbitrary units, the “Survival rate (%)” value ([Micafungin] log μM 1.079181) was 5% and the “Globalfluo assay 1” value ([Micafungin] log μM 1.176091) was 3454603 arbitrary units. The “Globalfluo assay 2” value ([Micafungin] log μM 1.176091) was 3676802 arbitrary units, the “Globalfluo assay 3” value ([Micafungin] log μM 1.176091) was 3618017 arbitrary units and the Mean globalfluo ([Micafungin] log μM 1.176091) was 3583141 arbitrary units. The “Survival rate (%)” value ([Micafungin] log μM 1.176091) was 6%, the “Globalfluo assay 1” value ([Micafungin] log μM 1.30103) was 3383992 arbitrary units and the “Globalfluo assay 2” value ([Micafungin] log μM 1.30103) was 2974781 arbitrary units. For the same molecule, the “Globalfluo assay 3” value ([Micafungin] log μM 1.30103) was 3188414 arbitrary units, the Mean globalfluo ([Micafungin] log μM 1.30103) was 3182396 arbitrary units and the “Survival rate (%)” value ([Micafungin] log μM 1.30103) was 3%. For the same molecule, the “Globalfluo assay 1” value ([Micafungin] log μM −2) was 2651037 arbitrary units, the “Globalfluo assay 2” value ([Micafungin] log μM −2) was 2880244 arbitrary units and the “Globalfluo assay 3” value ([Micafungin] log μM −2) was 2908835 arbitrary units. For the same molecule, the Mean globalfluo ([Micafungin] log μM −2) was 2813372 arbitrary units and the “Survival rate (%)” value ([Micafungin] log μM −2) was 1%.

Reference: US11458189B2, “Cytoprotective drugs” (BALMES TRANSPLANTATION, priority 2017, dated 2022)
